Experimental data taken from PubChem BioAssay (NCI).
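48-hour exposure; five concentrations; linearly interpolated endpoints. Definition used: TGI = concentration required for complete inhibition of growth.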

Key:
Experiment in all cases: NCI anticancer screen, dose series, 48 h
MDA-N = test system: MDA-N
SW-620 colon = test system: SW-620 colon
MOLT-4 leukemia = test system: MOLT-4 leukemia
NCI-H460 lung = test system: NCI-H460 lung
NCI-H522 lung = test system: NCI-H522 lung
A549 NSCLC = test system: A549 NSCLC
HS 578T breast = test system: HS 578T breast
SK-OV-3 ovarian = test system: SK-OV-3 ovarian
SF-539 CNS = test system: SF-539 CNS
COLO 205 colon = test system: COLO 205 colon
NCI/ADR-RES ovarian = test system: NCI/ADR-RES ovarian
MALME-3M melanoma = test system: MALME-3M melanoma
EKVX NSCLC = test system: EKVX NSCLC
K-562 leukemia = test system: K-562 leukemia
PC-3 prostate = test system: PC-3 prostate
SNB-75 CNS = test system: SNB-75 CNS
UO-31 renal = test system: UO-31 renal
SN12C renal = test system: SN12C renal
SF-268 CNS = test system: SF-268 CNS
DU-145 prostate = test system: DU-145 prostate
UACC-257 melanoma = test system: UACC-257 melanoma
HOP-92 NSCLC = test system: HOP-92 NSCLC
T-47D breast = test system: T-47D breast
HL-60(TB) leukemia = test system: HL-60(TB) leukemia
TK-10 renal = test system: TK-10 renal
MDA-MB-435 = test system: MDA-MB-435
A498 renal = test system: A498 renal
OVCAR-5 ovarian = test system: OVCAR-5 ovarian
SF-295 CNS = test system: SF-295 CNS
HCC-2998 colon = test system: HCC-2998 colon
MDA-MB-231 breast = test system: MDA-MB-231 breast
HOP-62 NSCLC = test system: HOP-62 NSCLC
SNB-19 CNS = test system: SNB-19 CNS
SK-MEL-28 melanoma = test system: SK-MEL-28 melanoma
HT29 colon = test system: HT29 colon
IGROV1 ovarian = test system: IGROV1 ovarian
OVCAR-8 ovarian = test system: OVCAR-8 ovarian
RPMI-8226 leukemia = test system: RPMI-8226 leukemia
UACC-62 melanoma = test system: UACC-62 melanoma
786-0 renal = test system: 786-0 renal
U251 CNS = test system: U251 CNS
OVCAR-3 ovarian = test system: OVCAR-3 ovarian
M14 melanoma = test system: M14 melanoma
CCRF-CEM leukemia = test system: CCRF-CEM leukemia
NCI-H23 lung = test system: NCI-H23 lung
CAKI-1 renal = test system: CAKI-1 renal
MCF7 breast = test system: MCF7 breast
HCT-116 colon = test system: HCT-116 colon
OVCAR-4 ovarian = test system: OVCAR-4 ovarian
SK-MEL-2 melanoma = test system: SK-MEL-2 melanoma
HCT-15 colon = test system: HCT-15 colon
SK-MEL-5 melanoma = test system: SK-MEL-5 melanoma
ACHN renal = test system: ACHN renal
LOX IMVI melanoma = test system: LOX IMVI melanoma
SR leukemia = test system: SR leukemia

`CO[C@]12CC(=O)C3(C(C[C@H]4CC5CCC6=CC(=O)CC[C@]6(OC(C)=O)C5C[C@@]43C)C1)C1C[C@H]3[C@@H]4CCC5=CC(=O)CC[C@]5(OC(C)=O)[C@H]4CC[C@]3(C)C12` (stereo not given in full) was tested, and the TGI (MDA-N) was > 100 µM, the TGI (SW-620 colon) was > 100 µM and the TGI (MOLT-4 leukemia) was > 100 µM. The TGI (NCI-H460 lung) was > 100 µM, the TGI (NCI-H522 lung) was > 100 µM and the TGI (A549 NSCLC) was > 100 µM. For the same compound, the TGI (HS 578T breast) was > 100 µM, the TGI (SK-OV-3 ovarian) was > 100 µM and the TGI (SF-539 CNS) was > 100 µM. The TGI (COLO 205 colon) was 56.7 µM, the TGI (NCI/ADR-RES ovarian) was > 100 µM and the TGI (MALME-3M melanoma) was > 100 µM. The TGI (EKVX NSCLC) was > 100 µM, the TGI (K-562 leukemia) was > 100 µM and the TGI (PC-3 prostate) was > 100 µM. For the same compound, the TGI (SNB-75 CNS) was > 100 µM, the TGI (UO-31 renal) was > 100 µM and the TGI (SN12C renal) was > 100 µM. The TGI (SF-268 CNS) was > 100 µM, the TGI (DU-145 prostate) was > 100 µM and the TGI (UACC-257 melanoma) was > 100 µM. For the same compound, the TGI (HOP-92 NSCLC) was > 100 µM, the TGI (T-47D breast) was > 100 µM and the TGI (HL-60(TB) leukemia) was > 100 µM. The TGI (TK-10 renal) was > 100 µM, the TGI (MDA-MB-435) was > 100 µM and the TGI (A498 renal) was > 100 µM. For the same compound, the TGI (OVCAR-5 ovarian) was > 100 µM, the TGI (SF-295 CNS) was > 100 µM and the TGI (HCC-2998 colon) was > 100 µM. For the same compound, the TGI (MDA-MB-231 breast) was 74.7 µM, the TGI (HOP-62 NSCLC) was > 100 µM and the TGI (SNB-19 CNS) was > 100 µM. The TGI (SK-MEL-28 melanoma) was > 100 µM, the TGI (HT29 colon) was > 100 µM and the TGI (IGROV1 ovarian) was > 100 µM. For the same compound, the TGI (OVCAR-8 ovarian) was > 100 µM, the TGI (RPMI-8226 leukemia) was > 100 µM and the TGI (UACC-62 melanoma) was > 100 µM. For the same compound, the TGI (786-0 renal) was > 100 µM, the TGI (U251 CNS) was > 100 µM and the TGI (OVCAR-3 ovarian) was > 100 µM. The TGI (M14 melanoma) was > 100 µM, the TGI (CCRF-CEM leukemia) was > 100 µM and the TGI (NCI-H23 lung) was > 100 µM. For the same compound, the TGI (CAKI-1 renal) was > 100 µM, the TGI (MCF7 breast) was > 100 µM and the TGI (HCT-116 colon) was > 100 µM. For the same compound, the TGI (OVCAR-4 ovarian) was > 100 µM, the TGI (SK-MEL-2 melanoma) was > 100 µM and the TGI (HCT-15 colon) was > 100 µM. For the same compound, the TGI (SK-MEL-5 melanoma) was > 100 µM, the TGI (ACHN renal) was > 100 µM and the TGI (LOX IMVI melanoma) was > 100 µM. For the same compound, the TGI (SR leukemia) was > 100 µM.
